Experimental findings from patent US20240368104A1, “Novel Dialkoxynaphtho[2,3-C]Furan-1(3H)-One Derivatives and Pharmaceutical Composition For Preventing or Treating Respiratory Disease or SARS-COV-2 Infection Disease, Comprising Same” (priority 2021, published 2024) are described below.

SMILES strings stand for the structures. pIC50: −log10 of the molar value. Read-outs that look alike come from different tables or passages of the source. A value given as a limit tells only on which side of the number the result lay.

In one series the test system is SARS-COV-2. Nature of the series: microbe, parasite or virus in culture. It is filed as cell-based. The arrangement: SI (Selectivity Index, CC50/IC50): unit not given here. To be noted: for SI (Selectivity Index, CC50/IC50): SARS-COV-2, values >50 assumed to be 50; for pIC50: read-out: SARS-COV-2 inhibition (IC50).
Another series is described as follows: in vitro. The conditions noted are these: African green monkey.
[1] abbreviates: Severe acute respiratory syndrome coronavirus 2, Vero cells, 24 hours infection.
Where [2] appears, read: Severe acute respiratory syndrome coronavirus 2, Vero, 24 h.

Broadly, the pIC50 is the negative decadic logarithm of the IC50, by convention in mol/L. In the case of `COc1cc2cc3c(c(-c4ccc(N(C)C5CCCCC5)nc4)c2cc1OC)C(=O)OC3` [Example 175, 9-(6-(cyclohexyl(methyl)amino)pyridin-3-yl)-6,7-dimethoxynaphtho[2,3-c]furan-1(3H)-one], the “SI (Selectivity Index, CC50/IC50)” value in the series with SARS-COV-2 is 42.02. Further, the pIC50 in the series with SARS-COV-2 (setting [1]) was 5.92. The compound also showed a CC50 in the series “in vitro” greater than 50 µM.
On the same counts, the results for `COc1ccc2c(-c3c4c(cc5cc(OC)c(OC)cc35)COC4=O)cc(C)nc2c1` [Example 141, 6,7-dimethoxy-9-(7-methoxy-2-methylquinolin-4-yl)naphtho[2,3-c]furan-1(3H)-one] are 2.07, 4.62 and greater than 50 µM.
On the same counts, the results for `COc1cc2cc3c(c(-c4cc(C)nc5c(F)cc(F)cc45)c2cc1OC)C(=O)OC3` [Example 139, 9-(6,8-difluoro-2-methylquinolin-4-yl)-6,7-dimethoxynaphtho[2,3-c]furan-1(3H)-one] are 1.0, less than 4.30 and greater than 50 µM.
Turning to `CCOP(=O)(OCC)Oc1cc2c(cc1-c1c3c(cc4cc(OC)c(OC)cc14)COC3=O)OCO2` [Example 277, 6-(6,7-dimethoxy-3-oxo-1,3-dihydronaphtho[2,3-c]furan-4-yl)benzo[d][1,3]dioxol-5-yl diethyl phosphate], the “SI (Selectivity Index, CC50/IC50)” value with SARS-COV-2 is reported as 1.00. In addition, the pIC50 in the series on SARS-COV-2 (setting [2]) was less than 4.30. The same compound gave a CC50 in “in vitro” greater than 50 µM.
Regarding `COc1cc2cc3c(c(-c4cnc(N5CC(C)CC(C)C5)nc4)c2cc1OC)C(=O)OC3` (stereo not drawn) [Example 57, 9-(2-(3,5-dimethylpiperidin-1-yl)pyrimidin-5-yl)-6,7-dimethoxynaphtho[2,3-c]furan-1(3H)-one], the “SI (Selectivity Index, CC50/IC50)” value with SARS-COV-2 is listed as 12.07. The pIC50 with SARS-COV-2 (setting [1]) was 5.38. Also, the CC50 in the series “in vitro” is greater than 50 µM.
As for `COc1cc2cc3c(c(-c4cncc(OCCN(C)C)c4)c2cc1OC)C(=O)OC3.Cl` [Example 187, 9-(5-(2-(dimethylamino)ethoxy)pyridin-3-yl)-6,7-dimethoxynaphtho[2,3-c]furan-1(3H)-one], the “SI (Selectivity Index, CC50/IC50)” value in the series on SARS-COV-2 is 1.0. For the same compound, in the series with SARS-COV-2 (setting [2]), the pIC50 was less than 4.30. Besides, the CC50 in the series “in vitro” is greater than 50 µM.
With `COc1cc2cc3c(c(-c4cnc(N5CCC[C@H]5CO)nc4)c2cc1OC)C(=O)OC3.Cl` [Example 83, (S)-9-(2-(2-(hydroxymethyl)pyrrolidin-1-yl)pyrimidin-5-yl)-6,7-dimethoxynaphtho[2,3-c]furan-1(3H)-one hydrochloride], the “SI (Selectivity Index, CC50/IC50)” value with SARS-COV-2 is 1.65. Besides, the pIC50 in the series with SARS-COV-2 (setting [2]) was 4.52. The compound further gave a CC50 in the series “in vitro” greater than 50 µM.
On to `COc1cc2cc3c(c(-c4ccc(N(C)C(=O)C(C)(C)C)nc4)c2cc1OC)C(=O)OC3` [Example 233, N-(5-(6,7-dimethoxy-3-oxo-1,3-dihydronaphtho[2,3-c]furan-4-yl)pyridin-2-yl)-N-methylpivalamide], for which the “SI (Selectivity Index, CC50/IC50)” value with SARS-COV-2 came out at 1.00. For the same compound, in the series on SARS-COV-2 (setting [1]), the pIC50 is less than 4.30. The compound also registered a CC50 in “in vitro” greater than 50 µM.
The corresponding values for `COc1cc2cc3c(c(-c4cnc(Oc5cccc6ccccc56)nc4)c2cc1OC)C(=O)OC3` [Example 21, 6,7-dimethoxy-9-(2-(naphthalen-1-yloxy)pyrimidin-5-yl)naphtho[2,3-c]furan-1(3H)-one] are 1.00, less than 4.30 and greater than 50 µM.
On the same counts, the results for `COc1cc2cc3c(c(-c4cnc(N5CCC6(CC5)OCCO6)nc4)c2cc1OC)C(=O)OC3` [Example 89, 9-(2-(1,4-dioxa-8-azaspiro[4.5]decan-8-yl)pyrimidin-5-yl)-6,7-dimethoxynaphtho[2,3-c]furan-1(3H)-one] are 1.00, less than 4.30 and greater than 50 µM.
On the same counts, the results for `COc1cc2cc3c(c(-c4cnc5ccc(N6CCOCC6)nn45)c2cc1OC)C(=O)OC3` [Example 220, 6,7-dimethoxy-9-(6-morpholinoimidazo[1,2-b]pyridazin-3-yl)naphtho[2,3-c]furan-1(3H)-one] are 1.00, less than 4.30 and greater than 50 µM.
Regarding `COc1cc2cc3c(c(-c4cc(C)nc5c(C(F)(F)F)cccc45)c2cc1OC)C(=O)OC3` [Example 136, 6,7-dimethoxy-9-(2-methyl-8-(trifluoromethyl)quinolin-4-yl)naphtho[2,3-c]furan-1(3H)-one], the “SI (Selectivity Index, CC50/IC50)” value in the series on SARS-COV-2 is on record as 1.0. The pIC50 in the series with SARS-COV-2 (setting [1]) was less than 4.30. The compound further displayed a CC50 in “in vitro” greater than 50 µM.
On the same counts, the results for `COc1cc2cc3c(c(-c4ccnc5c(F)cccc45)c2cc1OC)C(=O)OC3` [Example 137, 9-(8-fluoroquinolin-4-yl)-6,7-dimethoxynaphtho[2,3-c]furan-1(3H)-one] are 1.0, less than 4.30 and greater than 50 µM.
For the compound `COc1cc2cc3c(c(-c4ccc(N(C)c5nn(C)cc5C#N)nc4)c2cc1OC)C(=O)OC3.Cl` [Example 241, 3-((5-(6,7-dimethoxy-3-oxo-1,3-dihydronaphtho[2,3-c]furan-4-yl)pyridin-2-yl)(methyl)amino)-1-methyl-1H-pyrazol-4-carbonitrile], the “SI (Selectivity Index, CC50/IC50)” value in the series with SARS-COV-2 was 1.00. The pIC50 in the series with SARS-COV-2 (setting [2]) was less than 4.30. Moreover, the CC50 in the series “in vitro” was greater than 50 µM.
Regarding `COc1cc2cc3c(c(-c4ccc(N(C)c5ccccc5)nc4)c2cc1OC)C(=O)OC3` [Example 222, 6,7-dimethoxy-9-(6-(methyl(phenyl)amino)pyridin-3-yl)naphtho[2,3-c]furan-1(3H)-one], in the series on SARS-COV-2, the “SI (Selectivity Index, CC50/IC50)” value turned out to be 162.21. Further, in the series on SARS-COV-2 (setting [1]), the pIC50 was 6.51. This compound registered a CC50 in the series “in vitro” greater than 50 µM.
In the case of `COc1cc2cc3c(c(-c4cnc(N(C)CCC5=CCCCC5)nc4)c2cc1OC)C(=O)OC3.Cl` [Example 101, 9-(2-((2-(cyclohex-1-en-1-yl)ethyl)(methyl)amino)pyrimidin-5-yl)-6,7-dimethoxynaphtho[2,3-c]furan-1(3H)-one hydrochloride], the “SI (Selectivity Index, CC50/IC50)” value with SARS-COV-2 was 13.00. Also, the pIC50 in the series on SARS-COV-2 (setting [2]) is 5.41. In “in vitro”, this compound gave a CC50 greater than 50 µM.
As to `COc1cc2cc3c(c(-c4ccc(N(C)C)nc4)c2cc1OC)C(=O)OC3` [Example 163, 9-(6-(dimethylamino)pyridin-3-yl)-6,7-dimethoxynaphtho[2,3-c]furan-1(3H)-one], in the series with SARS-COV-2, the “SI (Selectivity Index, CC50/IC50)” value is 885.42. The pIC50 in the series with SARS-COV-2 (setting [1]) is 7.22. This compound showed a CC50 in the series “in vitro” greater than 50 µM.
With `COc1cc2cc3c(c(-c4cnc(N(C)C5CCCCC5)nc4)c2cc1OC)C(=O)OC3.Cl` [Example 79, 9-(2-(cyclohexyl(methyl)amino)pyrimidin-5-yl)-6,7-dimethoxynaphtho[2,3-c]furan-1(3H)-one hydrochloride], in the series with SARS-COV-2, the “SI (Selectivity Index, CC50/IC50)” value is 46.19. In addition, in the series on SARS-COV-2 (setting [2]), the negative-log IC50 (pIC50) is 5.97. In “in vitro”, this compound gave a CC50 greater than 50 µM.
For the compound `COc1cc2cc3c(c(-c4cnc(N(C)c5ccc(C)c(C)c5)nc4)c2cc1OC)C(=O)OC3.Cl` [Example 213, 9-(2-((3,4-dimethylphenyl)(methyl)amino)pyrimidin-5-yl)-6,7-dimethoxynaphtho[2,3-c]furan-1(3H)-one], in the series on SARS-COV-2, the “SI (Selectivity Index, CC50/IC50)” value was found to be 2.81 and the pIC50 is 5.36.
With `COc1cc2cccc(-c3c4c(cc5cc(OC)c(OC)cc35)COC4=O)c2cn1` [Example 133, 6,7-dimethoxy-9-(3-methoxyisoquinolin-8-yl)naphtho[2,3-c]furan-1(3H)-one], the “SI (Selectivity Index, CC50/IC50)” value with SARS-COV-2 is on record as 1.0. For the same compound, in the series with SARS-COV-2 (setting [1]), the pIC50 is less than 4.30. Besides, the CC50 in the series “in vitro” is greater than 50 µM.
With `COc1cc2cc3c(c(-c4cnc(N5CCCC(C(=O)O)C5)nc4)c2cc1OC)C(=O)OC3` (stereo not drawn) [Example 60, 1-(5-(6,7-dimethoxy-3-oxo-1,3-dihydronaphtho[2,3-c]furan-4-yl)pyrimidin-2-yl) piperidin-3-carboxylic acid], the “SI (Selectivity Index, CC50/IC50)” value in the series with SARS-COV-2 worked out at 1.00. Besides, the pIC50 in the series on SARS-COV-2 (setting [1]) was less than 4.30. Besides, in “in vitro”, the CC50 was greater than 50 µM.
Take `COc1cc2cc3c(c(-c4ccc(N5CCc6ccccc6C5)nc4)c2cc1OC)C(=O)OC3.Cl` [Example 189, 9-(6-(3,4-dihydroisoquinolin-2 (1H)-yl)pyridin-3-yl)-6,7-dimethoxynaphtho[2,3-c]furan-1(3H)-one]: the “SI (Selectivity Index, CC50/IC50)” value with SARS-COV-2 is given as 72.26. Further, the pIC50 with SARS-COV-2 (setting [2]) was 6.16. The CC50 in “in vitro” was greater than 50 µM.
`CCN(Cc1cccnc1)c1ccc(-c2c3c(cc4cc(OC)c(OC)cc24)COC3=O)cc1` [Example 254, 9-(4-(ethyl(pyridin-3-ylmethyl)amino)phenyl)-6,7-dimethoxynaphtho[2,3-c]furan-1(3H)-one]: the “SI (Selectivity Index, CC50/IC50)” value in the series with SARS-COV-2 stood at 12.17. Also, the pIC50 with SARS-COV-2 (setting [1]) was 5.39. The compound also came in with a CC50 in the series “in vitro” greater than 50 µM.
The corresponding values for `COc1cc2cc3c(c(-c4ccc(N5CCCCC5)nc4)c2cc1OC)C(=O)OC3` [Example 123, 6,7-dimethoxy-9-(6-(piperidin-1-yl)pyridin-3-yl)naphtho[2,3-c]furan-1(3H)-one] are 145.26, 6.47 and greater than 50 µM.
As for `COc1cc2cc3c(c(-c4cc(C)nc5c(OC)cccc45)c2cc1OC)C(=O)OC3` [Example 149, 6,7-dimethoxy-9-(8-methoxy-2-methylquinolin-4-yl)naphtho[2,3-c]furan-1(3H)-one], in the series with SARS-COV-2, the “SI (Selectivity Index, CC50/IC50)” value amounted to 1.0. In addition, in the series with SARS-COV-2 (setting [1]), the pIC50 was less than 4.30. The CC50 in the series “in vitro” was greater than 50 µM.
`COc1cc2cc3c(c(-c4cnc(N5CCc6sccc6C5)nc4)c2cc1OC)C(=O)OC3` [Example 12, 9-(2-(6,7-dihydrothieno[3,2-c]pyridin-5 (4H)-yl)pyrimidin-5-yl)-6,7-dimethoxynaphtho[2,3-c]furan-1(3H)-one]: the “SI (Selectivity Index, CC50/IC50)” value in the series with SARS-COV-2 was 60.38. Also, in the series on SARS-COV-2 (setting [1]), the pIC50 was 6.08. For the same compound, in the series “in vitro”, the CC50 was greater than 50 µM.
As for `COc1cc2cc3c(c(-c4cnc(N5CCCC(O)C5)nc4)c2cc1OC)C(=O)OC3.Cl` (stereo not drawn) [Example 80], the “SI (Selectivity Index, CC50/IC50)” value in the series with SARS-COV-2 amounted to 4.21.
